In patent publication US9073926B2, “Heterocyclic compounds containing a pyrrolopyridine or benzimidazole core” (Boehringer Ingelheim International GmbH, priority 2009, dated 2015):

biological target: Human RSK2 (Homo sapiens (Human), UniProt P51812); assay: Human RSK2 Assay (Kinase Glo Plus, residual ATP); format: biochemical; conditions: 0.75 nM His-RSK2, 0.75 μM ATP, 1.0 μM S6 Kinase/RSK Substrate Peptide 1
Procedure: Experimental Method A: Human RSK2 Assay
Compounds are assessed for their ability to inhibit the phosphorylation of a substrate peptide by RSK2.
Human RSK2 protein, purchased from Invitrogen, is used to measure kinase activity utilizing Kinase Glo Plus (Promega) a homogeneous assay technology, which uses a luciferin-luciferase based ATP detection reagent to quantify residual ATP. The assay is performed using 0.75 nM His-RSK2, 0.75 μM ATP and 1.0 μM S6 Kinase/RSK Substrate Peptide 1 (Upstate, catalog #12-124), in assay buffer consisting of 25 mM HEPES, pH 7.5, 10 mM MgCl2, 5 mM MnCl2, 50 mM KCl, 0.2% BSA, 0.01% CHAPS, 100 μM Na3VO4, 0.5 mM DTT, and 1% DMSO. Solutions of test compounds at various concentrations are prepared by 1:3 fold serial dilution of a 1 mM solution of compound in DMSO. The DMSO solutions are further diluted with assay buffer to a final concentration of DMSO of 5%.
The assay is performed in a 384 well, white, non-binding plate (Corning, catalogue #3574). Solutions of test compounds (10 μL) are transferred to a dry assay plate, followed by addition of 20 μL kinase and 20 μL ATP+Substrate Peptide 1 described above. The kinase reaction mixture is incubated for 90 minutes at 28° C. followed by addition of 30 μL of ATP detection reagent for 15 minutes at room temperature. The relative light unit (RLU) signal is measured on a LJL Analyst (Molecular Devices) in luminescence mode using 384 aperture. The RLU signals were converted to percent of control (POC) values using the formula: POC=100*(BCTRL−Signal)/(BCTRL−PCTRL), where Signal is the test well RLU signal, BCTRL is the average of background (negative control), which consists of ATP+peptide and compound buffer, well signals on the plate, and PCTRL is the average of positive control, which consists of kinase, ATP+peptide, and compound buffer, well signals on the plate. For concentration-responsive compounds, POC as a function of test compound concentration are fitted to a 4-parameter logistic equation of the form: Y=A+(B−A)/[1+(x/C)^D], where A, B, C, and D are fitted parameters (parameter B is fixed at zero POC), and x and y are the independent and dependent variables, respectively. The IC50 (50% inhibitory concentration) is determined as the inflection point parameter, C. Experimental Method B: Human RSK2 Trans-Reporter Assay

Sequence of Human RSK2 (P51812 whole entry): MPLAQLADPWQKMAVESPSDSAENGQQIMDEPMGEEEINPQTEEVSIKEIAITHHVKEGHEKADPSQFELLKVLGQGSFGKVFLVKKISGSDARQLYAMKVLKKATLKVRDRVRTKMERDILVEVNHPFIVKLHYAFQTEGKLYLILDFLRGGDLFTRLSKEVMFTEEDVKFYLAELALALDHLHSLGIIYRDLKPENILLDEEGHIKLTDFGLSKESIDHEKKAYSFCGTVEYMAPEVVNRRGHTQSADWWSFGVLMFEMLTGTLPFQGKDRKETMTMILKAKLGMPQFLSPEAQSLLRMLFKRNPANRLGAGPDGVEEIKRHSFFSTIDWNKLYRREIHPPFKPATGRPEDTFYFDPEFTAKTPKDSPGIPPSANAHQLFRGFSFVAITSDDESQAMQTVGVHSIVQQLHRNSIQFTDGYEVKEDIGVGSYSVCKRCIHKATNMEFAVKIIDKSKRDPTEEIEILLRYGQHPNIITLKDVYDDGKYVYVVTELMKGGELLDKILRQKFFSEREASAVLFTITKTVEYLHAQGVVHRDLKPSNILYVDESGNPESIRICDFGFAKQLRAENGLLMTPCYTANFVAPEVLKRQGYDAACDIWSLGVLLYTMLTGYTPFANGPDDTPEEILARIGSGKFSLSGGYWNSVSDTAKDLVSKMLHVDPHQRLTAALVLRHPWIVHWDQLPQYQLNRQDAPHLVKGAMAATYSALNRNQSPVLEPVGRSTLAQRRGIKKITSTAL

SMILES	IC50 [nM]
C[C@H]1CNC(=O)c2cc3ccc(C(=O)Nc4nc5ccccc5n4CCCN(C)C)nc3n21 [Example 75, (9S)-N-{1-[3-(dimethylamino)propyl]-1H-benzimidazol-2-yl}-9-methyl-6-oxo-6,7,8,9-tetrahydropyrido[3′,2′:4,5]pyrrolo[1,2-a]pyrazine-2-carboxamide]	265
O=C(Nc1cnn(Cc2ccccc2)c1)c1ccc2nc3n(c2c1)CCCNC3=O [Example 6, N-(1-benzyl-1H-pyrazol-4-yl)-1-oxo-2,3,4,5-tetrahydro-1H-[1,4]diazepino[1,2-a]benzimidazole-8-carboxamide]	44
Cc1cc(NC(=O)c2ccc3cc4n(c3n2)CC(C)(C)CNC4=O)no1 [Example 91, 9,9-dimethyl-N-(5-methyl-1,2-oxazol-3-yl)-6-oxo-7,8,9,10-tetrahydro-6H-pyrido[3′,2′:4,5]pyrrolo[1,2-a][1,4]diazepine-2-carboxamide]	395
CC1(C)CNC(=O)c2cc3ccc(C(=O)Nc4cnc5c(cnn5CC5CCOC5)c4)nc3n2C1 (centres unmarked) [Example 37, 9,9-dimethyl-6-oxo-N-[1-(tetrahydrofuran-3-ylmethyl)-1H-pyrazolo[3,4-b]pyridin-5-yl]-7,8,9,10-tetrahydro-6H-pyrido[3′,2′:4,5]pyrrolo[1,2-a][1,4]diazepine-2-carboxamide]	25
C[C@@H]1NC(=O)c2cc3ccc(C(=O)Nc4nc5ccccc5n4CCCN(C)C)nc3n2[C@H]1C (relative stereo) [Example 78, N-{1-[3-(dimethylamino)propyl]-1H-benzimidazol-2-yl}-trans-8,9-dimethyl-6-oxo-6,7,8,9-tetrahydropyrido[3′,2′:4,5]pyrrolo[1,2-a]pyrazine-2-carboxamide]	205
CC1(C)CNC(=O)c2cc3ccc(C(=O)Nc4cnc5c(cnn5C5CCOCC5)c4)nc3n2C1 [Example 34, 9,9-dimethyl-6-oxo-N-[1-(tetrahydro-2H-pyran-4-yl)-1H-pyrazolo[3,4-b]pyridin-5-yl]-7,8,9,10-tetrahydro-6H-pyrido[3′,2′:4,5]pyrrolo[1,2-a][1,4]diazepine-2-carboxamide]	62
CC(C)(C)c1cc(NC(=O)c2ccc3cc4n(c3n2)CCCNC4=O)no1 [Example 79, N-(5-tert-butyl-1,2-oxazol-3-yl)-6-oxo-7,8,9,10-tetrahydro-6H-pyrido[3′,2′:4,5]pyrrolo[1,2-a][1,4]diazepine-2-carboxamide]	19
Cn1c(NC(=O)c2ccc3cc4n(c3n2)CCCNC4=O)nc2ccccc21 [Example 51, N-(1-methyl-1H-benzimidazol-2-yl)-6-oxo-7,8,9,10-tetrahydro-6H-pyrido[3′,2′:4,5]pyrrolo[1,2-a][1,4]diazepine-2-carboxamide]	365
CN(C)CCCn1c(NC(=O)c2ccc3cc4n(c3n2)CC(C)(C)CNC4=O)nc2ccccc21 [Example 58, N-{1-[3-(dimethylamino)propyl]-1H-benzimidazol-2-yl}-9,9-dimethyl-6-oxo-7,8,9,10-tetrahydro-6H-pyrido[3′,2′:4,5]pyrrolo[1,2-a][1,4]diazepine-2-carboxamide]	2300
CC(C)n1c(NC(=O)c2ccc3cc4n(c3n2)CC(C)(C)CNC4=O)nc2ccccc21 [Example 54, 9,9-dimethyl-6-oxo-N-[1-(propan-2-yl)-1H-benzimidazol-2-yl]-7,8,9,10-tetrahydro-6H-pyrido[3′,2′:4,5]pyrrolo[1,2-a][1,4]diazepine-2-carboxamide]	1300
O=C(Nc1cccnc1)c1ccc2nc3n(c2c1)CCCNC3=O [Example 1, 1-oxo-N-(pyridin-3-yl)-2,3,4,5-tetrahydro-1H-[1,4]diazepino[1,2-a]benzimidazole-8-carboxamide]	5600
Cc1ccnc(NC(=O)c2ccc3nc4n(c3c2)CCCNC4=O)c1 [Example 5, N-(4-methylpyridin-2-yl)-1-oxo-2,3,4,5-tetrahydro-1H-[1,4]diazepino[1,2-a]benzimidazole-8-carboxamide]	3200
CC1CNC(=O)c2cc3ccc(C(=O)Nc4cccnc4)nc3n21 (centres unmarked) [Example 101, 9-methyl-6-oxo-N-(pyridin-3-yl)-6,7,8,9-tetrahydropyrido[3′,2′:4,5]pyrrolo[1,2-a]pyrazine-2-carboxamide]	120

These reach a lower IC50. Values come first.

IC50 [nM]	SMILES
0.34	C[C@H]1NC(=O)c2cc3ccc(C(=O)Nc4cnn(Cc5ccccc5)c4)nc3n2[C@H]1C (relative stereo) [Example 61, N-(1-benzyl-1H-pyrazol-4-yl)-cis-8,9-dimethyl-6-oxo-6,7,8,9-tetrahydropyrido[3′,2′:4,5]pyrrolo[1,2-a]pyrazine-2-carboxamide]
12	CC1(C)CNC(=O)c2cc3ccc(C(=O)Nc4cnn(Cc5ccccc5)c4)nc3n2C1 [Example 48, N-(1-benzyl-1H-pyrazol-4-yl)-9,9-dimethyl-6-oxo-7,8,9,10-tetrahydro-6H-pyrido[3′,2′:4,5]pyrrolo[1,2-a][1,4]diazepine-2-carboxamide]
11.6	CCn1c(NC(=O)c2ccc3cc4n(c3n2)[C@@H](C)[C@@H](C)NC4=O)nc2ccccc21 (relative stereo) [Example 73, N-(1-ethyl-1H-benzimidazol-2-yl)- cis-8,9-dimethyl-6-oxo-6,7,8,9-tetrahydropyrido[3′,2′:4,5]pyrrolo[1,2-a]pyrazine-2-carboxamide]
0.78	CC1CCNC(=O)c2cc3ccc(C(=O)Nc4cnn(C)c4)nc3n21 (centres unmarked) [Example 40, 10-methyl-N-(1-methyl-1H-pyrazol-4-yl)-6-oxo-7,8,9,10-tetrahydro-6H-pyrido[3′,2′:4,5]pyrrolo[1,2-a][1,4]diazepine-2-carboxamide]
4	CC(C)n1ncc2cc(NC(=O)c3ccc4cc5n(c4n3)[C@H](C)CNC5=O)cnc21 [Example 66, (9R)-9-methyl-6-oxo-N-[1-(propan-2-yl)-1H-pyrazolo[3,4-b]pyridin-5-yl]-6,7,8,9-tetrahydropyrido[3′,2′:4,5]pyrrolo[1,2-a]pyrazine-2-carboxamide]
2.1	CC(C)n1ncc2cc(NC(=O)c3ccc4cc5n(c4n3)C(C)CCNC5=O)cnc21 (centres unmarked) [Example 29, 10-methyl-6-oxo-N-[1-(propan-2-yl)-1H-pyrazolo[3,4-b]pyridin-5-yl]-7,8,9,10-tetrahydro-6H-pyrido[3′,2′:4,5]pyrrolo[1,2-a][1,4]diazepine-2-carboxamide]
1.1	CC1CCNC(=O)c2cc3ccc(C(=O)Nc4cnn(C(C)(C)C)c4)nc3n21 (centres unmarked) [Example 43, N-(1-tert-butyl-1H-pyrazol-4-yl)-10-methyl-6-oxo-7,8,9,10-tetrahydro-6H-pyrido[3′,2′:4,5]pyrrolo[1,2-a][1,4]diazepine-2-carboxamide]
6.7	O=C(Nc1nc2cc(Cl)cc(CN3CCOCC3)c2[nH]1)c1ccc2cc3n(c2n1)CCCNC3=O [Example 49, N-[5-chloro-7-(morpholin-4-ylmethyl)-1H-benzimidazol-2-yl]-6-oxo-7,8,9,10-tetrahydro-6H-pyrido[3′,2′:4,5]pyrrolo[1,2-a][1,4]diazepine-2-carboxamide]
3.8	O=C(Nc1cnn(Cc2ccccc2)c1)c1ccc2cc3n(c2n1)CCCNC3=O [Example 47, N-(1-benzyl-1H-pyrazol-4-yl)-6-oxo-7,8,9,10-tetrahydro-6H-pyrido[3′,2′:4,5]pyrrolo[1,2-a][1,4]diazepine-2-carboxamide]
6.1	O=C(Nc1nc2cc(Cl)ccc2[nH]1)c1ccc2cc3n(c2n1)CCCNC3=O [Example 67, N-(5-chloro-1H-benzimidazol-2-yl)-6-oxo-7,8,9,10-tetrahydro-6H-pyrido[3′,2′:4,5]pyrrolo[1,2-a][1,4]diazepine-2-carboxamide]
13	O=C(Nc1cnc2c(cnn2CC2CCOC2)c1)c1ccc2cc3n(c2n1)CCCNC3=O (centres unmarked) [Example 36, 6-oxo-N-[1-(tetrahydrofuran-3-ylmethyl)-1H-pyrazolo[3,4-b]pyridin-5-yl]-7,8,9,10-tetrahydro-6H-pyrido[3′,2′:4,5]pyrrolo[1,2-a][1,4]diazepine-2-carboxamide]
4.8	Cn1cc(NC(=O)c2ccc3cc4n(c3n2)CCCNC4=O)cn1 [Example 41, N-(1-methyl-1H-pyrazol-4-yl)-6-oxo-7,8,9,10-tetrahydro-6H-pyrido[3′,2′:4,5]pyrrolo[1,2-a][1,4]diazepine-2-carboxamide]
0.27	CC1CCNC(=O)c2cc3ccc(C(=O)Nc4cnn(Cc5ccncc5)c4)nc3n21 (centres unmarked) [Example 68, 10-methyl-6-oxo-N-[1-(pyridin-4-ylmethyl)-1H-pyrazol-4-yl]-7,8,9,10-tetrahydro-6H-pyrido[3′,2′:4,5]pyrrolo[1,2-a][1,4]diazepine-2-carboxamide]
